Experimental data reported in patent US20250205270A1, “ANTIBODY-DRUG CONJUGATE PRECURSORS COMPRISING A CYCLIC DINUCLEOTIDE” (TAKEDA PHARMACEUTICAL COMPANY LIMITED, priority 2016, published 2025).
Structures can show the parent of a compound that is named as a salt. Where two headings read alike, the source gives them in different places.

Tests used:
[1] = Human plasma stability assay; format: in vitro ADME; details: 37° C., 0-24 hours, LC/MS/MS
Description: The compound was incubated in heparinized human plasma at 37° C. for 0, 1, 2, 4, 8 and 24 hours, and the change in compound concentration was measured by LC/MS/MS method. The elimination rate constant (=k(/h)) was calculated based on the fitted curve assuming the exponential decrease of concentration as follows; concentration at time x=initial concentration*exp(−k*x).

[2] = tested on: colon carcinoma CT-26 syngeneic mice model; assay: Syngeneic tumor model, anti-tumor effect, CT-26; format: in vivo, mouse; details: Balb/C mice; intravenous, every 3 days, 3 times; Ex3a 30 mg/kg, Ex14 1.0 mg/kg
Description: (§1) Ex14 and Ex3a were tested in syngeneic tumor models in mice. […] See FIG. 8 and FIG. 9 for the anti-tumor effect colon carcinoma CT-26 syngeneic mice model, and FIG. 10 and FIG. 11 for the anti-tumor effect in the […] B16F10 syngeneic mice model.
(§2) 8×10^4 B16F10 and 2×10^5 CT-26 mouse tumor cells were subcutaneously implanted in the flank of female C57BL/6 (B16F10) and Balb/C (CT-26) mice (n=7 per group). Vehicle (1×PBS), compound Ex3a (30 mg/kg) or Ex14 (1.0 mg/kg) were intravenously administered (final volume of 100 μL) to tumor-bearing mice once the tumor volume has reached 100 mm^3 (Day 0). Vehicle, Ex3a or Ex14 were given every 3 days for a total of 3 doses (q3dx3). Tumor and body weight measurements were taken three times per week using vernier calipers and mettler scale, respectively. Tumor volumes were determined by multiplying the square of the width (‘W’), measured along the short axis of the tumor, by one-half the length (‘L’) measured along the […]

[3] = tested on: B16F10 syngeneic mice model; assay: Syngeneic tumor model, anti-tumor effect, B16F10; format: in vivo, mouse; details: C57BL/6 mice; intravenous, every 3 days, 3 times; Ex3a 30 mg/kg, Ex14 1.0 mg/kg
Description: as §1, §2

[4] = tested on: THP1-Dual cells (ISG54 promoter Lucia luciferase reporter); assay: THP-1 Dual Lucia reporter gene assay; format: cell-based, human; details: 20 hours incubation, read-out: THP-1 Dual cell EC50 (μM) Reporter
Description: THP1-Dual™ cells (InvivoGen #thpd-nfis) were derived from the human THP-1 monocyte cell line by stable integration of the Lucia luciferase gene, a secreted luciferase reporter gene, under the control of an ISG54 (interferon-stimulated gene) minimal promoter in conjunction with five interferon (IFN)-stimulated response elements. On the day of experiment, the cells were plated to a black, 384-well plate (Corning 356697) at 7500 cells/25 μL per well density in growth media (RPMI 1640, 2 mM L-glutamine, 25 mM HEPES, 10% heat-inactivated fetal bovine serum, 100 μg/mL Normocin™, 100 U/mL-100 μg/mL Pen-Strep, 10 μg/mL of blasticidin, and 100 μg/mL of Zeocin). The cell plates were dosed with 62.5 nL of the testing compounds, and then incubated at 37° C. for 20 hours. At the end of the incubation, 15 μL/well of the QUANTI-Luc™ (InvivoGen #rep-qlc1) were added, and luminescence was measured immediately using the LeadSeeker.

[5] = tested on: phosphorylated IRF3 protein in FaDu cell; assay: Phosphorylated IRF3 protein detection in FaDu cell; format: cell-based, human; details: at 30 μM; 6 hr; 2′,3′-cGAMP 30 μM = 100%
Description: Human larynx cancer cell line FaDu cell (ATCC) was seeded, the medium was replaced with serum free medium one day after the seeding. After the replacement, the cell was cultured for one day, and to the cell were added the natural ligand 2′,3′-cGAMIP (the final concentration; 30 μM) and test compound (the final concentration; 15 μM or 30 μM). 6 hr after the addition, the cell was washed with PBS, the cell extract was prepared, and the phosphorylated IRF3 protein was detected by ELISA method or Western blotting method. The IRF3 protein phosphorylation activity of the test compound was calculated when the value in the sample with adding the natural ligand 2′,3′-cGAMP at the final concentration of 30 μM was considered as 100%.

[6] = target: WT STING (Homo sapiens (Human), UniProt Q86WV6, H232R); format: cell-based
Chain of WT STING (Q86WV6 whole entry H232R): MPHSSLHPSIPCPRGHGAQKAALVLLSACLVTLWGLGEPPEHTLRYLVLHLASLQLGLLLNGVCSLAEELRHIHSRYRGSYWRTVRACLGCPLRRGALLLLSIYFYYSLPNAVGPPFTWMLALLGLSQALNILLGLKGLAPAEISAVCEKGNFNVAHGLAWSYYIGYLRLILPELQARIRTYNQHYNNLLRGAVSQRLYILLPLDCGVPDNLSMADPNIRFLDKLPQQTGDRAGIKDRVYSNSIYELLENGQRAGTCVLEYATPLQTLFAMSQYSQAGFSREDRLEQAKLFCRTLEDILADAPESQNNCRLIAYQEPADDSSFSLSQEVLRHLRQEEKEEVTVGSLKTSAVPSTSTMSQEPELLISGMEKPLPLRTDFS

SMILES	Human plasma stability (/h), elimination rate constant k [1] [h⁻¹]	activity level of test compound, IRF3 protein phosphorylation test [5] [% at 30 μM]	activity level against WT STING of test compound (30 μM) [6] [%]	further results
Nc1ncnc2c1ncn2[C@@H]1O[C@@H]2COP(=O)(S)O[C@@H]3[C@H](O)[C@@H](COP(=O)(S)O[C@H]2[C@H]1F)O[C@H]3n1cc(F)c2c(=O)[nH]cnc21 (stereo partly drawn) [Example 14, 7-((2R,5R,7R,8R,10R,12aR,14R,15R,15aR,16R)-14-(6-amino-9H-purin-9-yl)-15-fluoro-16-hydroxy-2,10-dioxido-2,10-disulfanyloctahydro-12H-5,8-methanofuro[3,2-1][1,3,6,9,11,2,10]pentaoxadiphosphacyclotetradecin-7-yl)-5-fluoro-3,7-dihydro-4H-pyrrolo[2,3-d]pyrimidin-4-one Disodium Salt]	<0.01			anti-tumor effect (tumor volume) [2]: anti-tumor effects were observed; anti-tumor effect (tumor volume) [3]: anti-tumor effects were observed
Nc1nc2c(ncn2[C@@H]2O[C@@H]3COP(=O)(O)O[C@H]4[C@@H](O)[C@H](n5cnc6c(N)ncnc65)O[C@@H]4COP(=O)(O)O[C@@H]2[C@@H]3O)c(=O)[nH]1 [cGAMP, 2′,3′-cGAMP, reference compound]	1.39			EC50 [4]: 18 µM
Nc1ncnc2c1ncn2[C@@H]1O[C@@H]2COP(=O)(O)O[C@@H]3[C@H](O)[C@@H](COP(=O)(O)O[C@H]2[C@H]1F)O[C@H]3n1cc(F)c2c(=O)[nH]cnc21 [Example 1, 7-((5R,7R,8R,12aR,14R,15R,15aR,16R)-14-(6-amino-9H-purin-9-yl)-15-fluoro-2,10,16-trihydroxy-2,10-dioxidooctahydro-12H-5,8-methanofuro[3,2-1][1,3,6,9,11,2,10]pentaoxadiphosphacyclotetradecin-7-yl)-5-fluoro-3,7-dihydro-4H-pyrrolo[2,3-d]pyrimidin-4-one di-triethylamine Salt]		468.8		
Nc1nc2c(ncn2[C@@H]2O[C@@H]3COP(=O)(O)O[C@H]4[C@@H](O)[C@H](c5cnn6c(N)ncnc56)O[C@@H]4COP(=O)(O)O[C@@H]2[C@@H]3O)c(=O)[nH]1 [Example 13, 2-amino-9-((5R,7R,8R,12aR,14S,15S,15aS,16R)-14-(4-aminopyrazolo[1,5-a][1,3,5]triazin-8-yl)-2,10,15,16-tetrahydroxy-2,10-dioxidooctahydro-12H-5,8-methanofuro[3,2-1][1,3,6,9,11,2,10]pentaoxadiphosphacyclotetradecin-7-yl)-1,9-dihydro-6H-purin-6-one di-triethylamine Salt]			99	
Nc1ncnc2c1ncn2[C@@H]1O[C@@H]2COP(=O)(O)O[C@@H]3[C@H](O)[C@@H](COP(=O)(S)O[C@H]2[C@H]1F)O[C@H]3n1cc(F)c2c(=O)[nH]cnc21 (stereo partly drawn) [Example 2, 7-((5R,7R,8R,12aR,14R,15R,15aR,16R)-14-(6-amino-9H-purin-9-yl)-15-fluoro-10,16-dihydroxy-2,10-dioxido-2-sulfanyloctahydro-12H-5,8-methanofuro[3,2-1][1,3,6,9,11,2,10]pentaoxadiphosphacyclotetradecin-7-yl)-5-fluoro-3,7-dihydro-4H-pyrrolo[2,3-d]pyrimidin-4-one di-triethylamine Salt (Optical Isomer)]		88.7	112	
Nc1ncnc2c1ncn2[C@@H]1O[C@@H]2COP(=O)(O)O[C@@H]3[C@H](O)[C@@H](COP(=O)(S)O[C@H]2[C@H]1F)O[C@H]3n1cc(F)c2c(=O)[nH]cnc21 (stereo partly drawn) [Example 3, 7-((2R,5R,7R,8R,12aR,14R,15R,15aR,16R)-14-(6-amino-9H-purin-9-yl)-15-fluoro-10,16-dihydroxy-2,10-dioxido-2-sulfanyloctahydro-12H-5,8-methanofuro[3,2-1][1,3,6,9,11,2,10]pentaoxadiphosphacyclotetradecin-7-yl)-5-fluoro-3,7-dihydro-4H-pyrrolo[2,3-d]pyrimidin-4-one 1.7 Triethylamine Salt]		464.6		
Nc1ncnc2c1ncn2[C@@H]1O[C@@]23CO[C@@H]1[C@@H]2OP(=O)(S)OC[C@H]1O[C@@H](n2cc(F)c4c(=O)[nH]cnc42)[C@H](OP(=O)(O)OC3)[C@@H]1O (stereo partly drawn) [Example 17, 7-((5R,7R,8R,12aR,14R,15R,15aS,18R)-14-(6-amino-9H-purin-9-yl)-10,18-dihydroxy-2,10-dioxido-2-sulfanylhexahydro-14H-15,12a-(epoxymethano)-5,8-methanofuro[3,2-1][1,3,6,9,11,2,10]pentaoxadiphosphacyclotetradecin-7(12H)-yl)-5-fluoro-3,7-dihydro-4H-pyrrolo[2,3-d]pyrimidin-4-one di-triethylamine Salt]			110	
Nc1ncnc2c1ncn2[C@@H]1O[C@@H]2COP(=O)(S)O[C@@H]3[C@H](O)[C@@H](COP(=O)(S)O[C@H]2[C@H]1O)O[C@H]3n1cc(F)c2c(=O)[nH]cnc21 (stereo partly drawn) [Example 5, 7-((5R,7R,8R,12aR,14R,15R,15aS,16R)-14-(6-amino-9H-purin-9-yl)-15,16-dihydroxy-2,10-dioxido-2,10-disulfanyloctahydro-12H-5,8-methanofuro[3,2-1][1,3,6,9,11,2,10]pentaoxadiphosphacyclotetradecin-7-yl)-5-fluoro-3,7-dihydro-4H-pyrrolo[2,3-d]pyrimidin-4-one di-triethylamine Salt (Optical Isomer)]	<0.01	117.4		
Nc1ncnc2c1ncn2[C@@H]1O[C@@H]2COP(=O)(O)O[C@@H]3[C@H](O)[C@@H](COP(=O)(S)O[C@H]2[C@H]1F)O[C@H]3n1cc(F)c2c(=O)[nH]cnc21 (stereo partly drawn) [Example 3a, 7-((2R,5R,7R,8R,12aR,14R,15R,15aR,16R)-14-(6-amino-9H-purin-9-yl)-15-fluoro-10,16-dihydroxy-2,10-dioxido-2-sulfanyloctahydro-12H-5,8-methanofuro[3,2-1][1,3,6,9,11,2,10]pentaoxadiphosphacyclotetradecin-7-yl)-5-fluoro-3,7-dihydro-4H-pyrrolo[2,3-d]pyrimidin-4-one Disodium Salt]	0.58			EC50 ([6]; with digitonin, read-out: STING-293T cell EC50 (μM) Reporter with digitonin (B)): 0.13 µM; EC50 ([4]; Homo sapiens, THP1-Dual): 5.6 µM; anti-tumor effect (tumor volume) [2]: anti-tumor effects were observed; anti-tumor effect (tumor volume) [3]: anti-tumor effects were observed
Nc1nc2c(ncn2[C@@H]2O[C@@H]3COP(=O)(O)O[C@@H]4[C@H](O)[C@@H](COP(=O)(O)O[C@H]3[C@H]2F)O[C@H]4n2cc(F)c3c(=O)[nH]cnc32)c(=O)[nH]1 [Example 19, 2-amino-9-((5R,7R,8R,12aR,14R,15R,15aR,16R)-15-fluoro-7-(5-fluoro-4-oxo-3,4-dihydro-7H-pyrrolo[2,3-d]pyrimidin-7-yl)-2,10,16-trihydroxy-2,10-dioxidooctahydro-12H-5,8-methanofuro[3,2-1][1,3,6,9,11,2,10]pentaoxadiphosphacyclotetradecin-14-yl)-1,9-dihydro-6H-purin-6-one di-triethylamine Salt]			101	
